Laboratory results taken from ChEMBL document CHEMBL5303573, “Mapping human microbiome drug metabolism by gut bacteria and their genes” (Nature, 2019).

Columns and labels:
[1] = The drug is tested on Bacteroides uniformis strain: ATCC8492 for biotransformation. The drug concentrations were measured before and after a 12-h incubation by liquid-chromatography-coupled mass spectrometry (LC–MS); settings: 2 µM
[2] = The drug is tested on Bacteroides vulgatus strain: ATCC8482 for biotransformation. The drug concentrations were measured before and after a 12-h incubation by liquid-chromatography-coupled mass spectrometry (LC–MS); settings: phocaeicola vulgatus, 2 µM
[3] = The drug is tested on Bacteroides xylanisolvens strain: DSM18836 for biotransformation. The drug concentrations were measured before and after a 12-h incubation by liquid-chromatography-coupled mass spectrometry (LC–MS); settings: 2 µM
[4] = The drug is tested on Odoribacter splanchnicus strain: fecal isolate for biotransformation. The drug concentrations were measured before and after a 12-h incubation by liquid-chromatography-coupled mass spectrometry (LC–MS); settings: 2 µM
[5] = The drug is tested on Clostridium asparagiforme strain: DSM15981 for biotransformation. The drug concentrations were measured before and after a 12-h incubation by liquid-chromatography-coupled mass spectrometry (LC–MS); type: ADME; design: dose 2 uM, timepoint 0 vs 12 hours; settings: enterocloster asparagiformis, 2 µM
[6] = The drug is tested on Clostridium sporogenes strain: ATCC15579 for biotransformation. The drug concentrations were measured before and after a 12-h incubation by liquid-chromatography-coupled mass spectrometry (LC–MS); settings: 2 µM
[7] = The drug is tested on Coprococcus comes strain: ATCC27758 for biotransformation. The drug concentrations were measured before and after a 12-h incubation by liquid-chromatography-coupled mass spectrometry (LC–MS); type: ADME; design: dose 2 uM, timepoint 0 vs 12 hours; settings: 2 µM
[8] = The drug is tested on Eubacterium rectale strain: ATCC33656 for biotransformation. The drug concentrations were measured before and after a 12-h incubation by liquid-chromatography-coupled mass spectrometry (LC–MS); settings: agathobacter rectalis, 2 µM
[9] = The drug is tested on Ruminococcus torques strain: ATCC27756 for biotransformation. The drug concentrations were measured before and after a 12-h incubation by liquid-chromatography-coupled mass spectrometry (LC–MS); type: ADME; design: dose 2 uM, timepoint 0 vs 12 hours; settings: 2 µM
[10] = The drug is tested on Providencia rettgeri strain: DSM1131 for biotransformation. The drug concentrations were measured before and after a 12-h incubation by liquid-chromatography-coupled mass spectrometry (LC–MS); type: ADME; design: dose 2 uM, timepoint 0 vs 12 hours; settings: 2 µM
[11] = bifidobacterium adolescentis, 12 h, 2 µM
Description: The drug is tested on Bifidobacterium adolescentis strain: ATCC 15703 for biotransformation. The drug concentrations were measured before and after a 12-h incubation by liquid-chromatography-coupled mass spectrometry (LC–MS)

[12] = bacteroides eggerthii, 12 h, 2 µM
Description: The drug is tested on Bacteroides eggerthii strain: DSM20697 for biotransformation. The drug concentrations were measured before and after a 12-h incubation by liquid-chromatography-coupled mass spectrometry (LC–MS)

[13] = bacteroides fragilis, 12 h, 2 µM
Description: The drug is tested on Bacteroides fragilis strain: 3397 (T10) for biotransformation. The drug concentrations were measured before and after a 12-h incubation by liquid-chromatography-coupled mass spectrometry (LC–MS)

[14] = bacteroides fragilis, 12 h, 2 µM; remark: listed apart in the source
Description: The drug is tested on Bacteroides fragilis strain: DS-208 for biotransformation. The drug concentrations were measured before and after a 12-h incubation by liquid-chromatography-coupled mass spectrometry (LC–MS)

[15] = bacteroides stercoris, 12 h, 2 µM
Description: The drug is tested on Bacteroides stercoris strain: ATCC43183 for biotransformation. The drug concentrations were measured before and after a 12-h incubation by liquid-chromatography-coupled mass spectrometry (LC–MS)

[16] = parabacteroides johnsonii, 12 h, 2 µM
Description: The drug is tested on Parabacteroides johnsonii strain: DSM18315 for biotransformation. The drug concentrations were measured before and after a 12-h incubation by liquid-chromatography-coupled mass spectrometry (LC–MS)

[17] = roseburia intestinalis, 12 h, 2 µM
Description: The drug is tested on Roseburia intestinalis strain: L1-82 for biotransformation. The drug concentrations were measured before and after a 12-h incubation by liquid-chromatography-coupled mass spectrometry (LC–MS)

[18] = akkermansia muciniphila, 12 h, 2 µM
Description: The drug is tested on Akkermansia muciniphila strain: ATCC BAA-835 for biotransformation. The drug concentrations were measured before and after a 12-h incubation by liquid-chromatography-coupled mass spectrometry (LC–MS)

[19] = limosilactobacillus reuteri cf48-3a, 12 h, 2 µM
Description: The drug is tested on Lactobacillus reuteri CF48-3A strain: BEI HM-102 for biotransformation. The drug concentrations were measured before and after a 12-h incubation by liquid-chromatography-coupled mass spectrometry (LC–MS)

[20] = The drug is tested on Bifidobacterium ruminantium strain: fecal isolate for biotransformation. The drug concentrations were measured before and after a 12-h incubation by liquid-chromatography-coupled mass spectrometry (LC–MS); settings: 2 µM

Structure (SMILES)	Bacterial Biotransformation [1]	Bacterial Biotransformation [2]	Bacterial Biotransformation [3]	Bacterial Biotransformation [4]	Bacterial Biotransformation [5]	Bacterial Biotransformation [6]	Bacterial Biotransformation [7]	Bacterial Biotransformation [8]	Bacterial Biotransformation [9]	Bacterial Biotransformation [10]	Bacterial Biotransformation [11]	Bacterial Biotransformation [12]	Bacterial Biotransformation [13]	Bacterial Biotransformation [14]	Bacterial Biotransformation [15]	Bacterial Biotransformation [16]	Bacterial Biotransformation [17]	Bacterial Biotransformation [18]	Bacterial Biotransformation [19]	Bacterial Biotransformation [20]
CC1OC(OC2C(O)CC(OC3C(O)CC(OC4CCC5(C)C(CCC6C5CCC5(C)C(C7=CC(=O)OC7)CCC65O)C4)OC3C)OC2C)CC(O)C1O (stereo unspecified)	Compound metabolized	Compound metabolized	Compound metabolized	Compound metabolized	Compound NOT metabolized	Compound metabolized	Compound NOT metabolized	Compound NOT metabolized	Compound NOT metabolized	Compound NOT metabolized	Compound NOT metabolized	Compound metabolized	Compound metabolized	Compound metabolized	Compound metabolized	Compound metabolized	Compound NOT metabolized	Compound NOT metabolized		
OCCN(CCO)c1nc(N2CCCCC2)c2nc(N(CCO)CCO)nc(N3CCCCC3)c2n1 [DIPYRIDAMOLE]		Compound metabolized			Compound NOT metabolized	Compound metabolized	Compound NOT metabolized	Compound NOT metabolized	Compound NOT metabolized	Compound NOT metabolized	Compound NOT metabolized	Compound NOT metabolized	Compound NOT metabolized	Compound metabolized	Compound NOT metabolized	Compound metabolized	Compound NOT metabolized	Compound NOT metabolized	Compound NOT metabolized	
O=C1NCC2(CCN(CCc3ccccc3)CC2)O1 [FENSPIRIDE]	Compound metabolized	Compound NOT metabolized	Compound NOT metabolized	Compound NOT metabolized	Compound NOT metabolized	Compound NOT metabolized	Compound NOT metabolized	Compound NOT metabolized	Compound NOT metabolized	Compound NOT metabolized	Compound NOT metabolized		Compound metabolized	Compound metabolized	Compound metabolized	Compound metabolized	Compound NOT metabolized	Compound NOT metabolized	Compound NOT metabolized	
OC(Cn1cncn1)(Cn1cncn1)c1ccc(F)cc1F [FLUCONAZOLE]	Compound metabolized		Compound metabolized	Compound metabolized	Compound NOT metabolized	Compound metabolized			Compound metabolized		Compound NOT metabolized		Compound metabolized		Compound metabolized	Compound metabolized		Compound metabolized	Compound NOT metabolized	Compound metabolized
COc1ccc2c3c1O[C@H]1C[C@@H](O)C=C[C@@]31CCN(C)C2 [GALANTAMINE]	Compound metabolized	Compound metabolized	Compound metabolized	Compound NOT metabolized	Compound NOT metabolized	Compound NOT metabolized	Compound NOT metabolized		Compound NOT metabolized	Compound NOT metabolized	Compound NOT metabolized	Compound metabolized	Compound metabolized	Compound metabolized	Compound NOT metabolized	Compound NOT metabolized	Compound NOT metabolized	Compound NOT metabolized		Compound NOT metabolized
CN1CCN(C2=Nc3ccccc3Oc3ccc(Cl)cc32)CC1.O=C(O)CCC(=O)O [LOXAPINE SUCCINATE]	Compound NOT metabolized	Compound NOT metabolized	Compound NOT metabolized	Compound NOT metabolized	Compound NOT metabolized	Compound NOT metabolized	Compound NOT metabolized	Compound NOT metabolized	Compound NOT metabolized	Compound NOT metabolized	Compound NOT metabolized	Compound NOT metabolized	Compound NOT metabolized	Compound NOT metabolized	Compound NOT metabolized	Compound NOT metabolized	Compound NOT metabolized	Compound NOT metabolized	Compound NOT metabolized	
COc1ccccc1N1CCN(CC(O)COc2cccc3ccccc23)CC1 (stereo unspecified) [NAFTOPIDIL]	Compound NOT metabolized	Compound NOT metabolized	Compound NOT metabolized	Compound NOT metabolized	Compound NOT metabolized	Compound NOT metabolized		Compound NOT metabolized	Compound NOT metabolized	Compound NOT metabolized	Compound NOT metabolized	Compound NOT metabolized	Compound NOT metabolized	Compound NOT metabolized	Compound NOT metabolized	Compound NOT metabolized	Compound NOT metabolized	Compound NOT metabolized	Compound NOT metabolized	
CN(C(=O)CN(CCO)CC(=O)N(C)C(C)(C)Cc1ccccc1)C(C)(C)Cc1ccccc1 [OXETHAZAINE]		Compound NOT metabolized		Compound NOT metabolized	Compound NOT metabolized	Compound NOT metabolized			Compound NOT metabolized		Compound NOT metabolized	Compound NOT metabolized	Compound NOT metabolized		Compound NOT metabolized	Compound NOT metabolized	Compound NOT metabolized	Compound NOT metabolized		Compound NOT metabolized
Fc1ccc([C@@H]2CCNC[C@H]2COc2ccc3c(c2)OCO3)cc1 [PAROXETINE]	Compound NOT metabolized	Compound NOT metabolized	Compound NOT metabolized	Compound NOT metabolized	Compound NOT metabolized		Compound NOT metabolized		Compound NOT metabolized	Compound NOT metabolized	Compound NOT metabolized	Compound NOT metabolized	Compound NOT metabolized	Compound NOT metabolized	Compound metabolized	Compound metabolized	Compound NOT metabolized	Compound NOT metabolized	Compound NOT metabolized	Compound NOT metabolized
